# Tests used:
# Type in all cases: in vivo, CD-1 mouse
# [1] = system: red blood cell in peripheral blood; experiment: Numerical change of RBC in peripheral blood; details: 0.1% extract or nandrolone injected to mice
# Method: (§1) Next, the pig testis extracts M1 and M2 were dissolved with first solvent of 100% ethanol, and then sesame oil was added to prepare at a concentration of 1 g/ml. 100% was defined as 100-fold diluted one with the sesame oil, and then the sample was used by diluting to be a concentration of 0.1%, 1%, 10% or 50%. Each concentration (0.1%, 1%, 10%, 50% or 100%) of the pig testis extract was subcutaneously injected to CD-1 mouse of 6 to 8-week raised under physiological condition for 21 days (6 mice per each group).
# Peripheral bloods were obtained after treating each of 0.1% pig testis extracts M1 and M2 under the same condition as the above Experimental Example. Since then, the number of RBC (Red Blood Cell) was counted by using an analyzer.
# [2] = system: CD34 hematopoietic stem cells in bone marrow; experiment: Numerical change of CD34-marked hematopoietic stem cell using FACS; details: 0.1% extract or nandrolone injected to mice, femur bone marrow
# Method: as §1
# In the Experimental Example, CD34, which is a marker for hematopoietic stem cell, was used in order to confirm whether a pig testis extract stimulates proliferation of hematopoietic stem cells, or not. Each of 0.1% pig testis extracts M1 and M2 was injected to the mice as the above Experimental Example; then the mice were scarified; their femurs were collected; and then bone marrows were extracted by using PBS solution.
# Since then, after reacting with CD34 specific antibody, CD34 hematopoietic stem cells were counted for the analysis by using a fluorescent activated cell sorter.
# [3] = system: reproductive period; experiment: Analysis of reproductive period change by vaginal smearing; details: during 21 days of subcutaneous injection, female CD-1 mice; nandrolone 3 mg/kg BW; compared with sesame oil control
# Method: as §1
# As mentioned above, each concentration of the pig testis extract was subcutaneously injected to 6-health CD-1 female mice raised under physiological condition for 21 days. Vaginal smearing was performed to analyze reproductive period change during an injection. As a control group, the mice injected with only sesame oil and the mice injected with only 19-nortestosterone (3 mg/kg BW) were used to analyze the effects. At 21 days after treating, the mice were anesthetized with sodium pentobarbital and then their peripheral bloods were collected. And immediately, the mice were sacrificed by a luxation of the cervical vertebral, and a femur for obtaining bone marrow and liver tissue, ovary, and uterus for analyzing cytotoxicity were removed. Some of them were fixed for a histological analysis and some of them were stored at a deep-freezer of −80° C. […]
smiles,measurement,setting,value
C[C@]12CC[C@H]3[C@@H](CCC4=CC(=O)CC[C@@H]43)[C@@H]1CC[C@@H]2O [nandrolone],number of RBC in peripheral blood compared with control group,[1],significantly increased
same,number of CD34 hematopoietic stem cell in bone marrow,[2],significantly increased
same,progress of reproductive period (vaginal smearing),[3],gradually irregular
